Test results published in patent US8946142B2, “Beta-arrestin effectors and compositions and methods of use thereof” (Trevena, Inc., priority 2012, dated 2015).
Where a SMILES comes first, the peptide text is derived from it. [ ]: non-standard residue; d: D form. The star is where a group is joined. Ac6c = NC1(C(=O)O)CCCCC1; Aib = CC(C)(N)C(=O)O; NHiPr = CC(C)N*; Sar = CNCC(=O)O

Assays:
Assay type in all cases: cell-based
human AT1R [1] = molecular target: T1, human AT1R (Homo sapiens, UniProt P30556); assay: IP1 accumulation assay (IP1 G-protein assay), human AT1R; conditions: for Emax: read-out: Span (relative to hAngII)
T1 sequence (P30556 1-359): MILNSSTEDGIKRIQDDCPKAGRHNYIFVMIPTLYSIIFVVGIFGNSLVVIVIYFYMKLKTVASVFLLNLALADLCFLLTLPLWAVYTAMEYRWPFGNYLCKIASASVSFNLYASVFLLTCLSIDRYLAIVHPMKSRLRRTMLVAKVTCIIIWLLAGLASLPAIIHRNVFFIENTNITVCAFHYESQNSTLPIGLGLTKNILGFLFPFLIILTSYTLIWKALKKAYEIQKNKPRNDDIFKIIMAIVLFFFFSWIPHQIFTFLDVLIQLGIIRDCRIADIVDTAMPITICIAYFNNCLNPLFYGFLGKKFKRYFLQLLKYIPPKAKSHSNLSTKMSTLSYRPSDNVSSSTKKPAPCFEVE
Experimental: (§1) A secondary measure of G protein coupling efficacy was also performed. IP3 is generated by activation of phospholipase C by Gα-q. IP3 is degraded to IP1, which can be forced to accumulate in cells by blocking degradation with lithium chloride. Thus we measured accumulation of IP1 to determine ligand efficacy for G protein activation.
(§2) IP1 accumulation generated by human and rat angiotensin 2 type 1 receptor (human AT1R and rat AT1aR, respectively) was measured with IP-One Tb kits purchased from Cisbio and used per the manufacturer's instructions. Clonal stably transfected cell lines expressing human AT1TR or rat AT1aR were used for all experiments.
(§3) For assays, 4,000-8,000 cells were seeded per well in 384-well small-volume microplates “HiBase” small-volume plate in volumes of 20 uL and allowed to grow overnight at 37° C. in 5% CO2. Cell growth media was then replaced with stimulation buffer supplied by Cisbio containing 50 mM lithium chloride. […] For agonist detection, peptides were then further diluted in stimulation buffer to add peptide to the cells to reach final concentrations ranging from 100 uM to 1 pM. Following addition of peptides, cells were incubated at 37° C. in 5% CO2 for 30 minutes and then lysed with 4 uL of pre-mixed HTRF IP-One reagents diluted per manufacturer's instructions (Cisbio). Microplates were incubated for 60-90 minutes at room temperature and then time-resolved fluorescence intensities were measured using a PHERAstar Plus microplate reader from BMG Labtech. IP1 accumulation was measured as change in ratio of time-resolved fluorescent intensities measured at 665 nm and 620 nm.

human AT1R [2] = molecular target: T1, human AT1R; assay: beta-arrestin2 recruitment assay (PathHunter), human AT1R; conditions: for Emax: 1 h, read-out: Span (relative to hAngII)
Experimental: (§4) The proximal event in β-arrestin function mediated by GPCRs is recruitment to receptors following ligand binding and receptor phosphorylation by GRK's. Thus, the measure of β-arrestin recruitment was used to determine ligand efficacy for β-arrestin function.
(§5) B-arrestin-2 recruitment to the human and rat angiotensin 2 type 1 receptor (human AT1R and rat AT1aR, respectively) was measured with the PathHunter™ μl-arrestin assay (DiscoveRx Corporation, Fremont Calif.). Cells, plasmid(s), and detection reagent(s) were purchased from DiscoveRx, and assays were performed per manufacturer's instructions. Human AT1R and rat AT1aR were cloned into the pCMV-ProLink vector, verified by sequencing, and transfected into PathHunter β-arrestin HEK293 cells. Stably transfected clonal cell lines were selected with Hygromycin and G418. These clonal cell lines were used for all experiments.
(§6) For assays, 4,000-8,000 cells were seeded per well in 384-well microplates “HiBase” small-volume plate in volumes of 20 uL and grown overnight in the incubator (37° C., 5% CO2, saturated humidity). Peptides were dissolved in DMSO to a concentration of 10 mM. Peptides were then further diluted in assay buffer (Hank's balanced salt solution with 20 mM HEPES) to add peptide to the cells to reach final concentrations ranging from 100 μM to 1 pM. Cells were then incubated for 60 minutes at 37° C. in 5% CO2, followed by addition of 2 μL of PathHunter Detection Reagent to each well. The microplates were then incubated at room temperature for 60 minutes, and then luminescence was measured using a PHERAstar Plus microplate reader from BMG Labtech. B-arrestin-2 recruitment to receptors was measured as relative luminescence intensity expressed in arbitrary units.

rat AT1aR [3] = molecular target: T2, rat AT1aR (Rattus norvegicus, UniProt P25095); assay: beta-arrestin2 recruitment assay (PathHunter), rat AT1aR; conditions: for Emax: 1 h, read-out: Span (relative to hAngII)
T2 sequence (P25095 1-359): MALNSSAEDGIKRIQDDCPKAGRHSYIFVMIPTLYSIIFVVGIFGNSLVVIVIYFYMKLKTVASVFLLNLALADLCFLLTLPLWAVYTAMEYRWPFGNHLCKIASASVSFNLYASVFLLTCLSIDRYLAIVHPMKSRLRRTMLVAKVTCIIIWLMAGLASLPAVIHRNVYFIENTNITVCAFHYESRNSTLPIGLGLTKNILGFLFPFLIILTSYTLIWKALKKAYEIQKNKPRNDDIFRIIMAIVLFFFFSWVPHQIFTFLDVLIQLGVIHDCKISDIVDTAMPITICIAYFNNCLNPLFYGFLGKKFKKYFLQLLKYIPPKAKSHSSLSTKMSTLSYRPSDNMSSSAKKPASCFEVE
Experimental: as §4, §5, §6

rat AT1aR [4] = molecular target: T2, rat AT1aR; assay: IP1 accumulation assay (IP1 G-protein assay), rat AT1aR; conditions: for Emax: read-out: Span (relative to hAngII)
Experimental: as §1, §2, §3

Row | SMILES | EC50 (human AT1R [1]; read-out: EC50) | EC50 (human AT1R [1]; read-out: pEC50 (converted)) | Emax (human AT1R [2]) | EC50 (human AT1R [2]; read-out: EC50) | EC50 (human AT1R [2]; read-out: pEC50 (converted)) | Emax (rat AT1aR [3]) | EC50 (rat AT1aR [3]; read-out: EC50) | EC50 (rat AT1aR [3]; read-out: pEC50 (converted)) | EC50 (rat AT1aR [4]; read-out: EC50) | Emax (rat AT1aR [4]) | EC50 (rat AT1aR [4]; read-out: pEC50 (converted)) | Emax (human AT1R [1]) | EC50 (nM) (rat AT1aR [3]) | pEC50 (rat AT1aR [3])
1 | CNCC(=O)N[C@@H](CCCNC(=N)N)C(=O)N[C@H](C(=O)N[C@@H](Cc1ccc(O)cc1)C(=O)N1CCC[C@H]1C(=O)N[C@@H](Cc1c[nH]cn1)C(=O)N1CCC[C@H]1C(=O)N[C@@H](C)C(=O)O)C(C)C [SEQ ID NO: 1, Sar-Arg-Val-Tyr-Pro-His-Pro-Ala] (H-[Sar]RVYPHPA-OH) | > 10000 nM | > 0.631 nM | < 101% | > 3.2 nM | > 3.16 nM | < 105% | > 3.2 nM | > 3.16 nM | > 0.6 nM | < 104% | > 0.631 nM |  |  | 
2 | CNCC(=O)N[C@@H](CCCNC(=N)N)C(=O)N[C@H](C(=O)N[C@@H](Cc1ccc(O)cc1)C(=O)NC1(C(=O)N[C@@H](Cc2c[nH]cn2)C(=O)N2CCC[C@H]2C(=O)N[C@@H](C)C(=O)O)CCCCC1)C(C)C [SEQ ID NO: 2, Sar-Arg-Val-Tyr-cyHex-His-Pro-Ala] | 10000 nM | > 0.631 nM | < 101% | > 3.2 nM |  | < 105% | > 3.2 nM |  | > 0.6 nM |  |  | < 103% |  | 
3 | CNCC(=O)N[C@@H](CCCNC(=N)N)C(=O)N[C@H](C(=O)N[C@@H](Cc1ccc(O)cc1)C(=O)NC1(C(=O)N[C@@H](Cc2c[nH]cn2)C(=O)N2CCC[C@H]2C(=O)N[C@@H](C)C(=O)O)CCCC1)C(C)C [SEQ ID NO: 3, Sar-Arg-Val-Tyr-cyPen-His-Pro-Ala] | > 10000 nM | > 0.631 nM | < 101% | > 3.2 nM | > 3.16 nM | < 105% | > 3.2 nM | > 3.16 nM | > 0.6 nM |  | > 0.631 nM |  |  | 
4 | CC[C@H](C)[C@H](NC(=O)[C@@H]1CCCN1C(=O)[C@H](Cc1c[nH]cn1)NC(=O)[C@@H]1CCCN1C(=O)[C@H](Cc1ccc(O)cc1)NC(=O)[C@@H](NC(=O)[C@H](CCCNC(=N)N)NC(=O)CNC)C(C)C)C(=O)O [SEQ ID NO: 4, Sar-Arg-Val-Tyr-Pro-His-Pro-Ile] (H-[Sar]RVYPHPI-OH; N-terminus and C-terminus assumed) |  |  | < 101% |  |  | < 105% |  |  |  |  |  | < 103% |  | 
5 | CNCC(=O)N[C@@H](CCCNC(=N)N)C(=O)N[C@H](C(=O)N[C@@H](Cc1ccc(O)cc1)C(=O)N1CCC[C@H]1C(=O)N[C@@H](Cc1c[nH]cn1)C(=O)N1CCC[C@H]1C(=O)N[C@@H](CO)C(=O)O)C(C)C [SEQ ID NO: 8, Sar-Arg-Val-Tyr-Pro-His-Pro-Ser] (H-[Sar]RVYPHPS-OH; N-terminus and C-terminus assumed) |  |  | < 101% |  |  | < 105% |  |  |  |  |  | < 103% |  | 
6 | CNCC(=O)N[C@@H](CCCNC(=N)N)C(=O)N[C@H](C(=O)N[C@@H](Cc1ccc(O)cc1)C(=O)NC(C)(C)C(=O)N[C@@H](Cc1c[nH]cn1)C(=O)N1CCC[C@H]1C(=O)N[C@H](C(=O)O)C(C)C)C(C)C [SEQ ID NO: 33, Sar-Arg-Val-Tyr-AA01-His-Pro-Val] (H-[Sar]RVY[Aib]HPV-OH) | > 1.3 nM | > 0.631 nM | < 101% | > 3.2 nM | > 3.16 nM | < 105% | > 3.2 nM | > 3.16 nM |  |  |  | < 103% |  | 
7 | CNCC(=O)N[C@@H](CCCNC(=N)N)C(=O)N[C@H](C(=O)N[C@@H](Cc1ccc(O)cc1)C(=O)NC1(C(=O)N[C@@H](Cc2c[nH]cn2)C(=O)N2CCC[C@H]2C(=O)N[C@@H](Cc2c[nH]cn2)C(=O)O)CCCCC1)C(C)C [SEQ ID NO: 37, Sar-Arg-Val-Tyr-cyHex-His-Pro-His] (H-[Sar]RVY[Ac6c]HPH-OH) |  |  | < 101% | > 3.2 nM | > 3.16 nM | < 105% | > 3.2 nM | > 3.16 nM | > 0.6 nM | < 104% | > 0.631 nM |  |  | 
8 | CNCC(=O)N[C@@H](CCCNC(=N)N)C(=O)N[C@H](C(=O)N[C@@H](Cc1ccc(O)cc1)C(=O)NC1(C(=O)N[C@@H](Cc2c[nH]cn2)C(=O)N2CCC[C@H]2C(=O)N[C@@H](CCCNC(=N)N)C(=O)O)CCCCC1)C(C)C [SEQ ID NO: 42, Sar-Arg-Val-Tyr-cyHex-His-Pro-Arg] (H-[Sar]RVY[Ac6c]HPR-OH) | > 1.3 nM | > 0.631 nM | < 101% | > 3.2 nM | > 3.16 nM | < 105% | > 3.2 nM | > 3.16 nM |  |  |  | < 103% |  | 
9 | CNCC(=O)N[C@@H](CCCNC(=N)N)C(=O)N[C@H](C(=O)N[C@@H](Cc1ccc(O)cc1)C(=O)NC1(C(=O)N[C@@H](Cc2c[nH]cn2)C(=O)N2CCC[C@H]2C(=O)N[C@@H](CC(=O)O)C(=O)O)CCCCC1)C(C)C [SEQ ID NO: 44, Sar-Arg-Val-Tyr-cyHex-His-Pro-Asp] (H-[Sar]RVY[Ac6c]HPD-OH) |  |  | < 101% | > 3.2 nM | > 3.16 nM | < 105% | > 3.2 nM | > 3.16 nM | > 0.6 nM | < 104% | > 0.631 nM |  |  | 
10 | CNCC(=O)N[C@@H](CCSC)C(=O)N[C@H](C(=O)N[C@@H](Cc1ccc(O)cc1)C(=O)NC1(C(=O)N[C@@H](Cc2c[nH]cn2)C(=O)N2CCC[C@H]2C(=O)N[C@@H](C)C(=O)O)CCCCC1)C(C)C [SEQ ID NO: 45, Sar-Met-Val-Tyr-cyHex-His-Pro-Ala] (H-[Sar]MVY[Ac6c]HPA-OH; N-terminus and C-terminus assumed) |  |  | < 101% |  |  | < 105% |  |  |  |  |  | < 103% |  | 
11 | CNCC(=O)N[C@@H](CCCNC(=N)N)C(=O)N[C@H](C(=O)N[C@@H](Cc1ccc(O)cc1)C(=O)NC1(C(=O)N[C@@H](Cc2c[nH]cn2)C(=O)N2CCC[C@H]2C(=O)NC(C)C)CCCCC1)C(C)C [SEQ ID NO: 46, Sar-Arg-Val-Tyr-cyHex-His-Pro-NH-i-Pr] (H-[Sar]RVY[Ac6c]HP-NHiPr) | > 1.3 nM | > 0.631 nM | < 101% | > 3.2 nM | > 3.16 nM | < 105% | > 3.2 nM | > 3.16 nM |  |  |  | < 103% |  | 
12 | CNCC(=O)N[C@@H](CCCCN)C(=O)N[C@H](C(=O)N[C@@H](Cc1ccc(O)cc1)C(=O)NC1(C(=O)N[C@@H](Cc2c[nH]cn2)C(=O)N2CCC[C@H]2C(=O)N[C@@H](C)C(=O)O)CCCCC1)C(C)C [SEQ ID NO: 51, Sar-Lys-Val-Tyr-cyHex-His-Pro-Ala] (H-[Sar]KVY[Ac6c]HPA-OH) | > 1.3 nM | > 0.631 nM | < 101% | > 3.2 nM | > 3.16 nM | < 105% | > 3.2 nM | > 3.16 nM |  |  |  | < 103% |  | 
13 | CCCCc1nc(Cl)c(CO)n1Cc1ccc(-c2ccccc2-c2nn[nH]n2)cc1 [losartan, reference compound] |  |  |  |  |  |  |  |  |  | < 104% |  |  | Inactive | Inactive
